Laboratory results as given in ChEMBL document CHEMBL1201862, “PubChem BioAssay data set” (2004).
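Test compounds were applied to cells in 96-well plates for 48 hours at 5 doses. GI50: concentration for 50% inhibition of growth.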 The source made the active and inactive calls. Cut-off read from the data, not from the text of the source: active = GI50 up to about 1.1 µM and inactive = higher.

Experiments:
Assay in all cases: DTP human tumour cell line panel, 48 h
[1] = system: EKVX
[2] = system: OVCAR-4
[3] = system: RXF 393
[4] = system: NCI-H460
[5] = system: SK-MEL-5
[6] = system: HOP-62
[7] = system: U-251
[8] = system: NCI-H226
[9] = system: ACHN
[10] = system: M14
[11] = system: 786-0
[12] = system: Malme-3M
[13] = system: KM12
[14] = system: UACC-62
[15] = system: SF-268
[16] = system: HOP-92
[17] = system: OVCAR-5

Measured: GI50

CS(=O)(=O)NNS(=O)(=O)c1ccccc1
inactive: [1] > 100 µM | [2] > 100 µM | [3] > 100 µM | [4] > 100 µM | [5] > 100 µM | [6] > 100 µM | [7] > 100 µM | [8] > 100 µM | [9] > 100 µM | [10] > 100 µM | [11] > 100 µM | [12] > 100 µM | [13] > 100 µM | [14] > 100 µM | [15] > 100 µM

COc1cccc(C2N3CCCCC3[C@@H]3c4[nH]c5ccccc5c4CCN23)c1OC (stereo not given in full)
inactive: [1] 17.9 µM | [2] 17.7 µM | [3] 13.4 µM | [16] 15.7 µM | [4] 19.2 µM | [5] 15.8 µM | [6] 15.9 µM | [7] 17.2 µM | [9] 15.2 µM | [10] 16.1 µM | [11] 18.3 µM | [14] 11.6 µM | [15] 11.5 µM | [17] 15.9 µM

CC/C(=N/O)c1ccc2[nH]c3c(C)cc([N+](=O)[O-])c(C)c3c2c1
inactive: [1] > 100 µM | [2] 87.9 µM | [4] 39.2 µM | [5] 57.3 µM | [6] 44 µM | [8] > 100 µM | [9] 25.1 µM | [10] 23.6 µM | [11] 36 µM | [12] 51.3 µM | [13] 37.4 µM | [15] 61.4 µM | [17] > 100 µM

CC1(C)C(=NNC(=S)NN)C(C)(C)C1=NNC(=S)NN
inactive: [1] > 100 µM | [2] > 100 µM | [3] > 100 µM | [16] > 100 µM | [5] 58.5 µM | [6] > 100 µM | [8] 4.9 µM | [9] > 100 µM | [10] > 100 µM | [11] > 100 µM | [12] > 100 µM | [14] > 100 µM | [15] > 100 µM | [17] > 100 µM

CN[C@@H](C)[C@@H](N)c1ccccc1
inactive: [1] > 100 µM | [3] > 100 µM | [16] > 100 µM | [4] > 100 µM | [5] > 100 µM | [7] > 100 µM | [8] > 100 µM | [9] > 100 µM | [10] > 100 µM | [11] > 100 µM | [12] > 100 µM | [14] > 100 µM

Cc1cc2c(C=O)n[nH]c2c(C#N)c1C
inactive: [1] > 100 µM | [2] 29.2 µM | [16] 31.3 µM | [4] 46.6 µM | [5] 32.6 µM | [6] > 100 µM | [7] 60.3 µM | [9] 63.5 µM | [10] 35.9 µM | [11] > 100 µM | [12] > 100 µM | [13] 34.7 µM | [14] 43.3 µM | [15] 31.9 µM | [17] > 100 µM

Nc1ccc2nc(NCc3ccc(F)cc3)cnc2c1
inactive: [1] > 100 µM | [2] > 100 µM | [3] 59.6 µM | [4] > 100 µM | [5] > 100 µM | [6] > 100 µM | [7] > 100 µM | [8] > 100 µM | [9] > 100 µM | [10] > 100 µM | [11] > 100 µM | [12] > 100 µM | [13] > 100 µM | [14] > 100 µM | [15] > 100 µM | [17] > 100 µM

CC1=C(C(=O)Nc2ccccc2C)C(c2ccccc2O)C(C(=O)Nc2ccccc2C)=C(C)N1
inactive: [1] 30.8 µM | [2] 22.2 µM | [3] 25.6 µM | [16] 51.4 µM | [4] 17.1 µM | [5] 20 µM | [6] 21.1 µM | [8] 23.8 µM | [9] 22.3 µM | [10] 18.2 µM | [11] 15.3 µM | [12] 26.7 µM | [13] 14.7 µM | [14] 15.8 µM | [15] 33.7 µM | [17] 30.8 µM

CCOC(=O)COc1cccc2c1C(=O)CCO2
inactive: [1] > 100 µM | [2] > 100 µM | [4] > 100 µM | [5] > 100 µM | [6] > 100 µM | [7] > 100 µM | [9] > 100 µM | [10] > 100 µM | [11] > 100 µM | [12] > 100 µM | [13] > 100 µM | [14] > 100 µM | [15] > 100 µM | [17] > 100 µM

N#CC(Sc1ccccc1)C(N)=O (stereo not given)
inactive: [1] > 100 µM | [2] > 100 µM | [3] > 100 µM | [16] > 100 µM | [4] > 10 µM | [5] > 100 µM | [6] > 100 µM | [7] > 100 µM | [8] > 100 µM | [10] > 100 µM | [11] > 100 µM | [12] > 100 µM | [13] > 100 µM | [14] > 100 µM | [15] > 100 µM | [17] > 100 µM

CCOC(=O)/C(=C/c1ccc(C(=O)OC)cc1)N(CC)CC
inactive: [1] 35.4 µM | [2] 48.2 µM | [16] 49.9 µM | [5] 37.7 µM | [6] 51.6 µM | [7] 42 µM | [8] 35.1 µM | [9] 60.5 µM | [10] 40.2 µM | [11] 41 µM | [12] 90.4 µM | [13] 41.3 µM | [14] 53.5 µM | [15] 40.1 µM | [17] > 100 µM

O=C(O)/C(=C\c1ccccc1Cl)S(=O)(=O)c1ccccc1
inactive: [2] > 100 µM | [3] > 100 µM | [16] > 100 µM | [4] > 100 µM | [5] > 100 µM | [6] > 100 µM | [7] > 100 µM | [9] > 100 µM | [10] > 100 µM | [11] > 100 µM | [12] > 100 µM | [13] > 100 µM | [14] > 100 µM | [15] > 100 µM | [17] > 100 µM

CCN(CC)C(=O)c1cccc2c(OC)ccc(OC)c12
inactive: [1] > 100 µM | [2] > 100 µM | [3] > 100 µM | [4] > 100 µM | [5] > 100 µM | [6] > 100 µM | [7] > 100 µM | [8] > 100 µM | [9] > 100 µM | [10] > 100 µM | [11] > 100 µM | [12] > 100 µM | [13] > 100 µM | [14] > 100 µM | [15] > 100 µM | [17] > 100 µM

O=C(CCc1cc(-c2ccccc2)[nH]c(=S)n1)Nc1ccccc1[N+](=O)[O-]
inactive: [1] > 100 µM | [3] > 100 µM | [16] > 100 µM | [4] > 100 µM | [5] > 100 µM | [6] > 100 µM | [7] > 100 µM | [8] > 100 µM | [9] > 100 µM | [10] > 100 µM | [11] > 100 µM | [12] > 100 µM | [13] > 100 µM | [14] > 100 µM | [15] > 100 µM | [17] > 100 µM

c1ccc2c(OCCSCCCCCCCCCCSCCOc3cccc4ccccc34)cccc2c1
inactive: [1] > 100 µM | [3] > 100 µM | [16] > 100 µM | [4] > 100 µM | [5] > 100 µM | [6] > 100 µM | [7] > 100 µM | [8] > 100 µM | [9] > 100 µM | [11] > 100 µM | [12] > 100 µM | [13] > 100 µM | [14] > 100 µM | [15] > 100 µM | [17] > 100 µM

Nc1ncnc2c1ncn2C1OC(CSC(F)(F)F)C(O)C1O (stereo not given)
inactive: [1] > 100 µM | [2] > 100 µM | [16] > 100 µM | [4] > 100 µM | [5] > 100 µM | [6] > 100 µM | [7] > 100 µM | [8] > 100 µM | [9] > 100 µM | [10] > 100 µM | [11] > 100 µM | [12] > 100 µM | [13] > 100 µM | [14] > 100 µM | [15] > 100 µM | [17] > 100 µM

COc1ccc2cc3n(c2c1)CCc1cc(OC)c(OC)cc1-3
inactive: [1] > 100 µM | [2] 45.9 µM | [3] > 100 µM | [16] > 100 µM | [4] > 100 µM | [6] > 100 µM | [7] 77.1 µM | [8] > 100 µM | [9] > 100 µM | [11] > 100 µM | [13] > 100 µM | [14] 71.8 µM | [15] > 100 µM

O=C1c2ccccc2C(=O)N1C/C=N/NS(=O)(=O)c1ccc(Cl)cc1
inactive: [1] > 100 µM | [2] > 100 µM | [4] > 100 µM | [5] > 100 µM | [6] > 100 µM | [7] > 100 µM | [8] 31.7 µM | [9] > 100 µM | [10] > 100 µM | [11] > 100 µM | [12] > 100 µM | [14] > 100 µM | [15] > 100 µM

C[C@@H](NC1CCCC[C@H]1O)c1ccccc1 (stereo not given in full)
inactive: [1] > 100 µM | [2] > 100 µM | [3] > 100 µM | [16] > 100 µM | [4] > 100 µM | [5] > 100 µM | [6] > 100 µM | [7] > 100 µM | [8] > 100 µM | [9] > 100 µM | [10] > 100 µM | [11] > 100 µM | [12] > 100 µM | [13] > 100 µM | [14] > 100 µM | [15] > 100 µM
